Laboratory results as given in patent publication US4146720A, “N-Aminoethyl-substituted-3-nitronaphthalimides” (priority 1977, dated 1979).

Columns and labels:
[1] = system: mouse; test: Comparative toxicity study (LD0, LD50) and therapeutic index; settings: for LD0 (zero lethal dose or maximal permissible dose): LD0 expressed in mg/mouse; for LD50: LD50 expressed in mg/mouse
Source text: (§1) In the study of the cytostatic action, 6-mercaptopurine was taken as the comparative anti-neoplastic drug.

[2] = system: HeLa cells; test: Cytotoxic activity on HeLa cells, comparison with corresponding 4-nitronaphthalimides; type: cell-based, human; settings: relative; ID50 of 6-mercaptopurine is assigned the value "1"; 37° C., 72 hours; Lowry protein
Experimental: A series of tests has been carried out comparing the compounds of our invention with the corresponding 4-nitronaphthalimides, with respect to their cytotoxic activity on HeLa cells. The cytotoxic activity test was carried out in accordance with the procedure set forth in "R. I. Heral. Cancer Chemotherapy Report part III, Vol. III, No. 2".
HeLa cells are human cancer cells commonly used for investigating the cytotoxic activity of compounds. These HeLa cells are cultured by the single layer tissue culture technique on glass slides in the laboratories of the Spanish company, Laboratories Made, S.A., of Madrid, Spain, the assignee of this application.
In the tests, there was used an initial culture containing approximately 125000 HeLa cells per milliliter. The initial culture was dispersed with trypsin and was stirred to maintain the cells in suspension therein. Portions of equal volume of the suspension were placed in separate test tubes and to the test tubes were added the various compounds set forth below in various concentrations. There was employed as a standard for comparison, the compound 6-mercaptopurine, a known anti-neoplastic agent whose cytotoxic activity on HeLa cells is well known. As a control, there were also employed test tubes containing the suspension and to which no compound was added.
The contents of the test tubes were cultured at 37° C. for 72 hours. Then the contents of the various test tubes were examined by optical microscope to determine the approximate proportion of cells whose cellular growth was inhibited. Then, the protein content of each tube was determined by the Lowry method, as modified by Oyama and Eagle (Proc. Soc. Exptl. Biol. Med. 91, 305 (1956), and these values are compared with the corresponding values obtained in the control test tubes wherein no compound was added. Comparison of these measured protein values provides a further determination of the inhibition of cell growth caused by the test compounds. With the data obtained from the test tubes containing the same compound in various concentrations, a graph was prepared of concentration of compound versus inhibition of growth of HeLa cells. From this, there can be obtained the so-called ID50 value, that is, the dose of the compound that inhibits HeLa cellular growth by 50%. This is then compared with the results for the comparison compound 6-mercaptopurine. For purposes of comparison, the ID50 value of 6-mercaptopurine is assigned the value "1".

[3] = system: He-La cells and KB cells; test: Cytostatic action on He-La cells and on KB cells, 6-mercaptopurine as comparative drug (Table 1); type: cell-based, human; design: unit not given beside the values; settings: calculated using 6-mercaptopurine as the comparative drug (6-mercaptopurine = 1)
Source text: as §1

[4] = system: Swiss I.C.R. albino mice; test: Raticide/muricide action, drugs mixed with mice food for 7 days, Warfarin as comparative substance; type: in vivo, mouse (Swiss I.C.R. albino); settings: for Dose to be taken in seven days: mixed with usual mice food at 1%, 0.5% and 0.1%, 7 days, oral; for Raticide and muricide action compared with Warfarin / Toxicity compared with Warfarin: in words
Experimental: The four drugs were given to Swiss I.C.R. albino mice during 7 days. The administration was done by mixing the drugs with the usual mice food at concentrations of 1%, 0.5% and 0.1%. Two cribs were put in each cage: one with the usual mice food and the other containing food to which our drugs were added at the above mentioned concentrations. The food of both cribs was weighed daily in order to see if the animals could distinguish it. Warfarin (3-(α-acetonylbenzyl)-4-hydroxycoumarin) was used as the comparative substance.

[5] = Comparative toxicity study (LD0, LD50) and therapeutic index; settings: mouse, in vivo
Source text: as §1

## O=C1c2cccc3cc([N+](=O)[O-])cc(c23)C(=O)N1CCN1CCCCC1 [Compound 1, N-[2-(N-piperidino)ethyl]-3-nitronaphthalimide]
[1]
  LD0 (zero lethal dose or maximal permissible dose): 0.5 mg/mouse
  LD50: 2 mg/mouse
[2]
  ID50 (dose that inhibits HeLa cellular growth by 50%): 2
[3]
  ID50 (50% inhibitory dose): 2
[4]
  Dose to be taken in seven days: 80 mg/kg

## CC(=O)CC(c1ccccc1)c1c(O)c2ccccc2oc1=O (stereo not drawn) [Warfarin, 3-(α-acetonylbenzyl)-4-hydroxycoumarin, reference compound]
[4]
  Dose to be taken in seven days: 35 mg/kg

## O=C1c2cccc3c([N+](=O)[O-])ccc(c23)C(=O)N1CCN1CCCCC1 [N-[2-(N-piperidino)ethyl]-4-nitronaphthalimide, reference compound]
[2]
  ID50 (dose that inhibits HeLa cellular growth by 50%): 5

## Sc1ncnc2nc[nH]c12 [6-mercaptopurine, reference compound]
[5]
  selectivity ratio: 5
[1]
  LD0 (zero lethal dose or maximal permissible dose): 1 mg/mouse
  LD50: 5 mg/mouse

## O=C1c2cccc3c([N+](=O)[O-])ccc(c23)C(=O)N1CCN1CCCC1 [N-[2-(N-pyrrolidino)ethyl]-4-nitronaphthalimide, reference compound]
[2]
  ID50 (dose that inhibits HeLa cellular growth by 50%): 4

## CCN(CC)CCN1C(=O)c2cccc3c([N+](=O)[O-])ccc(c23)C1=O [N-[2-diethylaminoethyl]-4-nitronaphthalimide, reference compound]
[2]
  ID50 (dose that inhibits HeLa cellular growth by 50%): 5.5

## CCN(CC)CCN1C(=O)c2cccc3cc([N+](=O)[O-])cc(c23)C1=O [Compound 2, N-(2-diethylaminoethyl)-3-nitronaphthalimide]
[1]
  LD0 (zero lethal dose or maximal permissible dose): 0.15 mg/mouse
  LD50: 2 mg/mouse
[2]
  ID50 (dose that inhibits HeLa cellular growth by 50%): 3
[3]
  ID50 (50% inhibitory dose): 3
[4]
  Raticide and muricide action compared with Warfarin: great superiority over Warfarin as raticide and muricide agents
  Toxicity compared with Warfarin: more toxic
  Dose to be taken in seven days: 13 mg/kg

## CN(C)CCN1C(=O)c2cccc3c([N+](=O)[O-])ccc(c23)C1=O [N-[2-dimethylaminoethyl]-4-nitronaphthalimide, reference compound]
[2]
  ID50 (dose that inhibits HeLa cellular growth by 50%): 3

## O=C1c2cccc3cc([N+](=O)[O-])cc(c23)C(=O)N1CCN1CCCC1 [Compound 4, N-[2-(N-pyrrolidino)ethyl]-3-nitronaphthalimide]
[5]
  selectivity ratio: 1.26
[1]
  LD0 (zero lethal dose or maximal permissible dose): 0.2 mg/mouse
  LD50: 0.38 mg/mouse
[2]
  ID50 (dose that inhibits HeLa cellular growth by 50%): 0.30
[3]
  ID50 (50% inhibitory dose): 0.3
[4]
  Raticide and muricide action compared with Warfarin: great superiority over Warfarin as raticide and muricide agents
  Toxicity compared with Warfarin: more toxic
  Dose to be taken in seven days: 6.6 mg/kg

## CN(C)CCN1C(=O)c2cccc3cc([N+](=O)[O-])cc(c23)C1=O [Compound 3, N-(2-dimethylaminoethyl)-3-nitronaphthalimide]
[5]
  selectivity ratio: 2
[1]
  LD0 (zero lethal dose or maximal permissible dose): 0.2 mg/mouse
  LD50: 0.30 mg/mouse
[2]
  ID50 (dose that inhibits HeLa cellular growth by 50%): 0.15
[3]
  ID50 (50% inhibitory dose): 0.15
[4]
  Raticide and muricide action compared with Warfarin: great superiority over Warfarin as raticide and muricide agents
  Toxicity compared with Warfarin: more toxic
  Dose to be taken in seven days: 6.6 mg/kg
